Data from patent US20080306257A1, “Syntheses and Preparations of Narwedine and Related Novel Compounds” (priority 2005, published 2008).

Tests used:
Format in all cases: physicochemical
[1] = solubility of (−)-galanthamine hydrobromide in water
Description: (§1) It has been further observed that (−)-galanthamine hydrobromide can be further purified with high yield and without degradation of the material by crystallization in water in the presence of ammonium bromide. Lower yields are obtained using water in the absence of ammonium bromide due to the high solubility of (−)-galanthamine hydrobromide in water (about 50 mg/mL at room temperature and 300 mg/mL at reflux temperature).

[2] = epimerization of (−)-galanthamine under acidic conditions; conditions: under acidic conditions (presence of hydrobromic acid)
Description: as §1

[3] = racemization in THF solution; conditions: THF solution at approximately 0° C.
Description: Advantage of this aspect of invention include, among others, the reduction reaction of (−)-narwedine-BF3 complex can be carried out at approximately 0° C.

Question: Which solubility in water ([1]; at reflux temperature) does the source give for `Br.COc1ccc2c3c1O[C@H]1C[C@@H](O)C=C[C@@]31CCN(C)C2` [(−)-galanthamine hydrobromide] here?
Answer: ~300 mg/mL

Question: What about the solubility in water ([1]; at room temperature) of the same compound?
Answer: about 50 mg/mL

Question: With `COc1ccc2c3c1O[C@H]1C[C@@H](O)C=C[C@@]31CCN(C)C2` [(−)-galanthamine, (4aS,6R,8aS)-4a,5,9,10,11,12-hexahydro-3-methoxy-11-methyl-6H-benzofuro[3a,3,2-ef][2]benzazepin-6-ol] as the compound, how does the “epimerization to (−)-epigalanthamine (stability)” value [2] read?
Answer: rapidly epimerized

Question: With “(−)-narwedine-BF3 complex [(−)-narwedine.BF3 complex]” as the compound, how does the “racemization (configurational stability)” value [3] read?
Answer: racemizes very slowly
